# System: Plasmodium berghei
# Assay: Luciferase/luciferin-expressing antifolate-resistant parasites were used to infect a culture of HepG2 cells that were pre-incubated with compounds. Infected hepatocytes emit light due to the luciferase reaction. Assay results are presented as the percent inhibition of light emission compared to control. […]
# Assay type: functional
# Details: sporozoite; for IC90: read-out: LUCIFERASE INFECTION ASSAY - IC90
# [1] = read-out: LUCIFERASE INFECTION ASSAY - IC50
Structure (SMILES),IC90,IC50 [1],other results
COc1ccc(Nc2nccc3c2cc(-c2cccc(OC)c2)n3C)cc1,8.15 µM,,"IC50 (PBLUC_HILL_SLOPE 2.81, PBLUC_R_SQUARED 0.348, read-out: LUCIFERASE INFECTION ASSAY - IC50): 3.73 µM"
CC(C)COc1ccc(NC(=O)c2ccnn2C)cc1Cl,> 10 µM,,"IC50 (PBLUC_HILL_SLOPE 14.7, PBLUC_R_SQUARED 0.488, read-out: LUCIFERASE INFECTION ASSAY - IC50): 9.12 µM"
c1nc(NCc2ccc(CN3CCOCC3)cc2)c2c3c(sc2n1)CCC3,1.55 µM,,"IC50 (HEPG2TOX_HILL_SLOPE 1.37, HEPG2TOX_R_SQUARED 0.969, PBLUC_HILL_SLOPE 10, PBLUC_R_SQUARED 0.164, read-out: LUCIFERASE INFECTION ASSAY - IC50): 1.25 µM"
FC(F)Oc1ccc(-c2n[nH]cc2Sc2ccc(Cl)cc2)cc1,> 9.35 µM,,"IC50 (FFLUC_HILL_SLOPE 44.1, FFLUC_R_SQUARED 0.44, PBLUC_HILL_SLOPE 8.27, PBLUC_R_SQUARED 0.292, read-out: LUCIFERASE INFECTION ASSAY - IC50): > 9.35 µM"
O=C(Nc1cccnc1)N1CCc2nc(Nc3cc(Cl)cc(Cl)c3)ncc2C1,> 7.95 µM,> 7.95 µM,
CCOc1ccc(-n2c(Sc3ccc4nnnn4n3)nnc2-c2ccc(C(C)(C)C)cc2)cc1,9.4 µM,,"IC50 (FFLUC_HILL_SLOPE 16.9, FFLUC_R_SQUARED 0.24, PBLUC_HILL_SLOPE 5, PBLUC_R_SQUARED 0.626, read-out: LUCIFERASE INFECTION ASSAY - IC50): 6.06 µM"
O=C(NC1CC1)c1ccc(-c2cn3c(-c4ccc5ncccc5c4)cnc3cn2)cc1,> 8.14 µM,,"IC50 (HEPG2TOX_HILL_SLOPE 8.34, HEPG2TOX_R_SQUARED 0.193, PBLUC_HILL_SLOPE 5.05, PBLUC_R_SQUARED 0.479, read-out: LUCIFERASE INFECTION ASSAY - IC50): 7.19 µM"
CC(C)Oc1ccc(S(=O)(=O)N2CCOCC2)cc1NC(=O)c1cc(-c2ccccc2)n[nH]1,4.44 µM,,"IC50 (HEPG2TOX_HILL_SLOPE 13.1, HEPG2TOX_R_SQUARED 0.378, PBLUC_HILL_SLOPE 12.6, PBLUC_R_SQUARED 0.276, read-out: LUCIFERASE INFECTION ASSAY - IC50): 3.73 µM"
CC1(C(=O)NCc2cccnc2)CCN1Cc1ccccc1Cl (stereo not given),> 10 µM,,"IC50 (PBLUC_HILL_SLOPE 2.38, PBLUC_R_SQUARED 0.474, read-out: LUCIFERASE INFECTION ASSAY - IC50): 4.27 µM"
CN(C)CCn1c(=O)n(Cc2ccccc2)c(=O)c2c3c(sc21)CCCCC3,> 8.3 µM,,"IC50 (PBLUC_HILL_SLOPE 10.5, PBLUC_R_SQUARED 0.0293, read-out: LUCIFERASE INFECTION ASSAY - IC50): 7.95 µM"
C=CCN(CC(=O)NC1CCS(=O)(=O)C1)S(=O)(=O)c1ccccc1C(F)(F)F (stereo not given),> 10 µM,,"IC50 (FFLUC_HILL_SLOPE 0.888, FFLUC_R_SQUARED 0.174, read-out: LUCIFERASE INFECTION ASSAY - IC50): > 10 µM"
O=C(CSc1cccc[n+]1[O-])N1N=C2/C(=C/c3ccccc3)CCCC2C1c1ccccc1 (stereo not given),6.17 µM,,"IC50 (PBLUC_HILL_SLOPE 13.0, 1.48, PBLUC_R_SQUARED 0.151, 0.616, read-out: LUCIFERASE INFECTION ASSAY - IC50): 2.66 µM"
O=C(Nc1cccc(Cl)c1)Nc1cccc(Cl)c1,5.51 µM,,"IC50 (PBLUC_HILL_SLOPE 3.72, PBLUC_R_SQUARED 0.618, read-out: LUCIFERASE INFECTION ASSAY - IC50): 3.05 µM"
Cc1ccc(-n2c(SCC(=O)c3ccc4c(c3)OCO4)nnc2N2CCCC2)cc1,> 10 µM,> 10 µM,
COc1ncccc1-c1cc2c(cn1)nc(Nc1cccc(C(F)(F)F)c1)n2C,> 10 µM,,"IC50 (PBLUC_HILL_SLOPE 1.56, PBLUC_R_SQUARED 0.782, read-out: LUCIFERASE INFECTION ASSAY - IC50): 2.89 µM"
CCOc1cc(C(=O)Oc2cccc(Cl)c2Cl)cc(OCC)c1OCC,> 10 µM,,"IC50 (FFLUC_HILL_SLOPE 1.16, FFLUC_R_SQUARED 0.617, read-out: LUCIFERASE INFECTION ASSAY - IC50): > 10 µM"
C=c1c(Nc2cccc(C(F)(F)F)c2)cc(Nc2cccc(C(F)(F)F)c2)c(O)c1=C,> 10 µM,,"IC50 (PBLUC_HILL_SLOPE 2.41, PBLUC_R_SQUARED 0.317, read-out: LUCIFERASE INFECTION ASSAY - IC50): 7.29 µM"
FC(F)Oc1ccc(-c2csc(COc3ccc(C4SCCS4)cc3)n2)cc1,> 7.54 µM,3.7 µM,
Nc1cc(C(F)(F)F)cnc1Nc1ccc(Cl)cc1,> 11.5 µM,> 11.5 µM,
CN(C)c1ccc(-c2cnc3cnc(-c4ccc(O)cc4)cn23)cc1,1.76 µM,,"IC50 (HEPG2TOX_HILL_SLOPE 0.921, HEPG2TOX_R_SQUARED 0.948, PBLUC_HILL_SLOPE 0.805, PBLUC_R_SQUARED 0.912, read-out: LUCIFERASE INFECTION ASSAY - IC50): 0.115 µM"
COc1ccccc1NC1=C(Cl)C(=O)c2ccccc2C1=O,8.17 µM,,"IC50 (FFLUC_HILL_SLOPE 2.43, FFLUC_R_SQUARED 0.19, HEPG2TOX_HILL_SLOPE 11.1, HEPG2TOX_R_SQUARED 0.994, PBLUC_HILL_SLOPE 1.56, PBLUC_R_SQUARED 0.76, read-out: LUCIFERASE INFECTION ASSAY - IC50): 2 µM"
CNC(=O)c1ccc(CN(C2CC2)S(=O)(=O)c2ccc(Br)s2)cc1,> 10 µM,,"IC50 (PBLUC_HILL_SLOPE 3.54, PBLUC_R_SQUARED 0.19, read-out: LUCIFERASE INFECTION ASSAY - IC50): 5.83 µM"
CC(C)OC(=O)Nc1cc(Cl)cc(Cl)c1,> 13.3 µM,> 13.3 µM,

Structure (SMILES),IC90,IC50 [1],other results
Clc1cc(Cl)cc(NCc2ccc3c(c2)OCO3)c1,> 11.1 µM,> 11.1 µM,
COc1ccc(-c2csc3ncnc(NC4CCN(S(C)(=O)=O)CC4)c23)cc1,> 10 µM,,"IC50 (FFLUC_HILL_SLOPE 15, FFLUC_R_SQUARED 0.503, HEPG2TOX_HILL_SLOPE 1.74, HEPG2TOX_R_SQUARED 0.848, read-out: LUCIFERASE INFECTION ASSAY - IC50): > 10 µM"
Cc1nc(Oc2ccc3ccc(=O)oc3c2)c2c3c(sc2n1)CCCCC3,> 10 µM,,"IC50 (PBLUC_HILL_SLOPE 3.34, 13.2, PBLUC_R_SQUARED 0.778, 0.263, read-out: LUCIFERASE INFECTION ASSAY - IC50): 7.83 µM"
O=C(Nc1nonc1-c1cccs1)c1cccc(Cl)c1,> 10.8 µM,,"IC50 (HEPG2TOX_HILL_SLOPE 10.4, HEPG2TOX_R_SQUARED 0.681, PBLUC_HILL_SLOPE 17.7, PBLUC_R_SQUARED 0.0482, read-out: LUCIFERASE INFECTION ASSAY - IC50): 9.87 µM"
C=CCN(c1ccc(Cl)cc1)S(=O)(=O)c1cccc(C(=O)C(C#N)c2nc3ccccc3n2C)c1 (stereo not given),3.88 µM,,"IC50 (HEPG2TOX_HILL_SLOPE 10.3, HEPG2TOX_R_SQUARED 0.536, PBLUC_HILL_SLOPE 9.9, PBLUC_R_SQUARED 0.166, read-out: LUCIFERASE INFECTION ASSAY - IC50): 3.1 µM"
Cc1cc(=O)n2nc(-c3ccccc3)cc2n1CC(=O)Nc1cc(Cl)ccc1N1CCCCC1,4.37 µM,3.43 µM,
O=C1/C(=C/c2ccc(-n3cncn3)c(F)c2)CSc2ccccc21,> 10 µM,> 10 µM,
CC(C)(C)CN=C(C#N)C(C#N)/N=C/c1cccc(Cl)c1 (stereo not given),> 11 µM,> 11 µM,
O=[N+]([O-])c1ccc(C2Nc3ccc(F)cc3N2)s1 (stereo not given),6.65 µM,,"IC50 (PBLUC_HILL_SLOPE 4.41, PBLUC_R_SQUARED 0.496, read-out: LUCIFERASE INFECTION ASSAY - IC50): 4.04 µM"
CCN(c1ccccc1)S(=O)(=O)c1ccc(NNC(=O)Nc2cccc3ccccc23)nc1,> 10 µM,8.75 µM,
O=C(Nc1ccc(-n2cnc3ccccc32)nc1)c1ccc(S(=O)(=O)C(F)F)cc1,> 10 µM,,"IC50 (FFLUC_HILL_SLOPE 3, FFLUC_R_SQUARED 0.28, HEPG2TOX_HILL_SLOPE 9.7, HEPG2TOX_R_SQUARED 0.823, PBLUC_HILL_SLOPE 15.6, 20.0, PBLUC_R_SQUARED 0.113, 0.608, read-out: LUCIFERASE INFECTION ASSAY - IC50): 9.13 µM"
CCOC(=O)c1sc(SC)c2c1CC(c1ccccc1)CC2=O (stereo not given),> 9.52 µM,> 9.52 µM,
CCN(CC)S(=O)(=O)c1ccc(SC(C)C(=O)Nc2ccc(OC(F)(F)F)cc2)nc1 (stereo not given),> 10 µM,,"IC50 (FFLUC_HILL_SLOPE 13.8, FFLUC_R_SQUARED 0.75, read-out: LUCIFERASE INFECTION ASSAY - IC50): > 10 µM"
Oc1cc2c(cc1CN1CCN(Cc3ccc4c(c3)OCO4)CC1)CCC2,> 10 µM,> 10 µM,
Cc1cc(/C=C(\C#N)C(=O)OCC(=O)c2c(N)n(CC(C)C)c(=O)n(C)c2=O)c(C)n1CC(C)C,> 10 µM,,"IC50 (PBLUC_HILL_SLOPE 2.67, PBLUC_R_SQUARED 0.243, read-out: LUCIFERASE INFECTION ASSAY - IC50): 7.76 µM"
CC(C)c1cc(Cl)n2ncc(-c3ccccc3)c2n1,> 12.1 µM,,"IC50 (PBLUC_HILL_SLOPE 1.33, PBLUC_R_SQUARED 0.849, read-out: LUCIFERASE INFECTION ASSAY - IC50): 4.61 µM"
Clc1ccc2c(NCc3ccc(N4CCOCC4)nc3)ncnc2c1,> 10 µM,> 10 µM,
CN(C)c1ccc(S(=O)(=O)N2CCCCC2)cc1NC(=S)NCc1ccc2c(c1)OCO2,> 10 µM,> 10 µM,
O=C(Nc1nc(-c2cccs2)cs1)c1c[nH]c(C(=O)N2CCCC2)c1,> 10 µM,> 10 µM,
CCN(CC)S(=O)(=O)c1ccc(=O)n(Cc2nc(N)nc(N(C)C)n2)c1,> 10 µM,> 10 µM,
Cc1c(OCc2ccc([N+](=O)[O-])cc2)ccc2c1OC(C)(C)C=C2,6.1 µM,0.667 µM,
CCN(CC)S(=O)(=O)c1ccc(C(=O)c2c(C)c(C(=O)C(F)(F)F)c3ccccn23)cc1,> 10 µM,> 10 µM,
